pIC50: −log10 of the molar value.
Columns and labels:
Format in all cases: biochemical
[1] = molecular target: T1, human JAK3 (a.a. 781-1124) (Homo sapiens, UniProt P52333); assay: In vitro JAK kinase assay (HTRF, phosphorylation of a biotinylated peptide), JAK3; settings: method AA1 (3 μM ATP) or AA2 (1000 μM ATP), not stated per value
T1 construct: JAK3 (a.a. 781-1124); His tag (N); made in house; host or cells: insect cells (baculovirus)
Procedure, shortened: (§1)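 Phosphorylation of a biotinylated peptide by the JAK kinase domain, detected by HTRF with Eu-Py20 and SA-APC. ATP was 90 μM for JAK1, 30 μM for JAK2 and 3 μM for JAK3. Reactions ran 1 h at room temperature and were stopped with EDTA, followed by 40 min antibody binding.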

[2] = molecular target: T2, human JAK2 (a.a. 828-1132) (Homo sapiens, UniProt O60674); assay: In vitro JAK kinase assay (HTRF, phosphorylation of a biotinylated peptide), JAK2; settings: method AA1 (30 μM ATP) or AA2 (1000 μM ATP), not stated per value
T2 construct: JAK2 (a.a. 828-1132); His tag (N); made in house; host or cells: insect cells (baculovirus)
T2 sequence (O60674 828-1132): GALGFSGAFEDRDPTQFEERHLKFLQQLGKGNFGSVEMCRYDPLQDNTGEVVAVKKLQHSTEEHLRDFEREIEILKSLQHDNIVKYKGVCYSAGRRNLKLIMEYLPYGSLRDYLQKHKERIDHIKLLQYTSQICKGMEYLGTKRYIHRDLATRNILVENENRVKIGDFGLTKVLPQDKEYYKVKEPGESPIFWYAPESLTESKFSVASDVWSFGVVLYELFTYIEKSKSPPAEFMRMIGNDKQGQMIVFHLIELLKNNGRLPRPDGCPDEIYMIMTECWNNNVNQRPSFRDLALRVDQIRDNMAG
Procedure, shortened: as §1

[3] = molecular target: T3, Recombinant Human Anaplastic Lymphoma Kinase (Homo sapiens, UniProt Q9UM73); assay: ALK HTRF kinase assay; settings: compound at 500 nM or 1 mM; 90 μM ATP
T3 construct: purchased Invitrogen, Carlsbad, Calif
T3 sequence (Q9UM73 19-1620): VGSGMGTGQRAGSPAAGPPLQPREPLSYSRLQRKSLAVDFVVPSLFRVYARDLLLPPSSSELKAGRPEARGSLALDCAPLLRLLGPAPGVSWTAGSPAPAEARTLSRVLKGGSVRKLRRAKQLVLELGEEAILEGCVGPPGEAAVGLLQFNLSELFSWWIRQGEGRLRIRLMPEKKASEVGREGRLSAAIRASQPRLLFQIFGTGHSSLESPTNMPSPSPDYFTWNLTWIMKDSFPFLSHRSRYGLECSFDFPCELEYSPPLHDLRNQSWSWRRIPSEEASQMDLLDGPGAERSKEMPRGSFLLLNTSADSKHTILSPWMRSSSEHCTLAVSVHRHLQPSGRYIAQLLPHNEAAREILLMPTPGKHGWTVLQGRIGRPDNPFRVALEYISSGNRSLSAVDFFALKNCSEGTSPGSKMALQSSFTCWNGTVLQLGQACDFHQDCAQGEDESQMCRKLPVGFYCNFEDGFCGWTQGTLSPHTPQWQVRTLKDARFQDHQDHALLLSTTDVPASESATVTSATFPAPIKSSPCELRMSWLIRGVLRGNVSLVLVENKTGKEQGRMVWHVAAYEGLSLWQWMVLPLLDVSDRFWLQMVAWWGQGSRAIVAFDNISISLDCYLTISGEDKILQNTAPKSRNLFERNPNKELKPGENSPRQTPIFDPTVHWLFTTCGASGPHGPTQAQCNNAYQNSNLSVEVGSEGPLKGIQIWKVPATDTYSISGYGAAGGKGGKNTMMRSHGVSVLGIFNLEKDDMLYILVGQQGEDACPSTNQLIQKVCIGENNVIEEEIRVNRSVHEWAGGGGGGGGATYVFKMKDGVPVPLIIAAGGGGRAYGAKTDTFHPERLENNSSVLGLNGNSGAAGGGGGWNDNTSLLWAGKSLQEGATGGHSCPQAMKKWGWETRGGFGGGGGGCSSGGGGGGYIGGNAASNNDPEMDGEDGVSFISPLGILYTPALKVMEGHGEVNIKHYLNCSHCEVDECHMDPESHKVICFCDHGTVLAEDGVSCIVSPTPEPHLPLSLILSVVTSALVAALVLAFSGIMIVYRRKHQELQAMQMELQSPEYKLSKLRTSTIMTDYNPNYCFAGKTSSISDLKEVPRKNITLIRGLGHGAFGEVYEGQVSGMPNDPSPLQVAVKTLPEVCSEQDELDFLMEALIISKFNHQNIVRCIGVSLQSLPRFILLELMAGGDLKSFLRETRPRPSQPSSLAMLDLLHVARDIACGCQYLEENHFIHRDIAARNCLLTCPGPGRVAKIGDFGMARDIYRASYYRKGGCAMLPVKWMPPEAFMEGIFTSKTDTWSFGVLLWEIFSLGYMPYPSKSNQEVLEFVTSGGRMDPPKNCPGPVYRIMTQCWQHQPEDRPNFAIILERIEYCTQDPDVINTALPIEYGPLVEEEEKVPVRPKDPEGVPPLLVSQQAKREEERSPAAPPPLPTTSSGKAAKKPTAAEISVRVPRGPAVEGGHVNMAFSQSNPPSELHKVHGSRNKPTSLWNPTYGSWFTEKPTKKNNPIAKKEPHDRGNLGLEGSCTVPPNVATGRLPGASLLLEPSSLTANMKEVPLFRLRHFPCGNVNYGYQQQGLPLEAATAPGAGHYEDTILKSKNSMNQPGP
Procedure, shortened: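 IC50 was obtained from a logistic fit of signal versus log inhibitor concentration, using pre- and post-transition baselines and a Hill slope. The signal reported tyrosine phosphorylation of a biotinylated peptide by recombinant human kinase, detected as Eu-to-APC energy transfer.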

TYK2 = TYK2 (Homo sapiens, UniProt P29597); assay: TYK2 kinase inhibition (Table A1)
Chain of TYK2 (P29597 whole entry): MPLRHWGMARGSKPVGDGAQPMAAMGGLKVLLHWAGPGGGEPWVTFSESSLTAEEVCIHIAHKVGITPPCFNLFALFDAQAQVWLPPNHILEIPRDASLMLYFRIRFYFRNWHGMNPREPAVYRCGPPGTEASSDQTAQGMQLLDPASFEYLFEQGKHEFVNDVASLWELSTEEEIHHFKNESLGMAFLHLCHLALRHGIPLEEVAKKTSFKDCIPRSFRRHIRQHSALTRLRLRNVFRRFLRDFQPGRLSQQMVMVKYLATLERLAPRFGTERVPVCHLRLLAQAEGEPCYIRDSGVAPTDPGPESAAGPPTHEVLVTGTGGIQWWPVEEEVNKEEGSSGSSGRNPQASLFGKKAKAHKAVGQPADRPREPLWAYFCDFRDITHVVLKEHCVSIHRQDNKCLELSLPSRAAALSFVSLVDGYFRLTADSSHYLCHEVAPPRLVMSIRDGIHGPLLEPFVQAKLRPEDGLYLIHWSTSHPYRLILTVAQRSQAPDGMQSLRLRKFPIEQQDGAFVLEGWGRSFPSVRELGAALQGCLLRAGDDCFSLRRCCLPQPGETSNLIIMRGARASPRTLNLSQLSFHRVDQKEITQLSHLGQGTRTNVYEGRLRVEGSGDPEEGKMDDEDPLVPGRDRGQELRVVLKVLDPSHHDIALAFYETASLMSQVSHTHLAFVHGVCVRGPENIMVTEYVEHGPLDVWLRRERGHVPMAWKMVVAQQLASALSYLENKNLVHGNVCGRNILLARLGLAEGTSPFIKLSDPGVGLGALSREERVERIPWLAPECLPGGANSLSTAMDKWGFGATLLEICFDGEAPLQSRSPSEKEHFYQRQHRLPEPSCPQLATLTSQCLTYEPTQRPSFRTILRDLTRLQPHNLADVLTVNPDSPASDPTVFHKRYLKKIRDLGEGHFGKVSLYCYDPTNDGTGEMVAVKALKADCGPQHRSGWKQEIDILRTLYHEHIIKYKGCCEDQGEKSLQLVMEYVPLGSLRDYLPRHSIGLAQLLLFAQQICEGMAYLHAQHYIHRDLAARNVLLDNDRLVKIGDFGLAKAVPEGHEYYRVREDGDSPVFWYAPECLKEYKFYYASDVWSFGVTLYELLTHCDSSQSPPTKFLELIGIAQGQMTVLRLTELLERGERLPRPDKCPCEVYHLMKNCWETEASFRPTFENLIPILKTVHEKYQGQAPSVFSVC

[4] = molecular target: T4, human JAK1 (a.a. 837-1142) (Homo sapiens, UniProt P23458); assay: In vitro JAK kinase assay (HTRF, phosphorylation of a biotinylated peptide), JAK1; settings: method AA1 (90 μM ATP) or AA2 (1000 μM ATP), not stated per value; read-out: JAK1 IC50
T4 construct: human JAK1 (a.a. 837-1142); His tag (N); made in house; host or cells: insect cells (baculovirus)
T4 sequence (P23458 849-1154): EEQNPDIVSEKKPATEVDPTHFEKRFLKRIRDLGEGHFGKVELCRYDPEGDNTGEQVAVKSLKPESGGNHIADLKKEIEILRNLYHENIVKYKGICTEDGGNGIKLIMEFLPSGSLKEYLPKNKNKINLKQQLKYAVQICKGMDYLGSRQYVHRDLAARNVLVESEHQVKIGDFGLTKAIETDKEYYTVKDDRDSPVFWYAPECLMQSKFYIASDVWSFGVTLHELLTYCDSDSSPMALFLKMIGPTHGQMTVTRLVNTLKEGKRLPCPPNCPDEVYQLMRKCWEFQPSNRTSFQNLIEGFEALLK
Procedure, shortened: as §1

T1 sequence (P52333 781-1124): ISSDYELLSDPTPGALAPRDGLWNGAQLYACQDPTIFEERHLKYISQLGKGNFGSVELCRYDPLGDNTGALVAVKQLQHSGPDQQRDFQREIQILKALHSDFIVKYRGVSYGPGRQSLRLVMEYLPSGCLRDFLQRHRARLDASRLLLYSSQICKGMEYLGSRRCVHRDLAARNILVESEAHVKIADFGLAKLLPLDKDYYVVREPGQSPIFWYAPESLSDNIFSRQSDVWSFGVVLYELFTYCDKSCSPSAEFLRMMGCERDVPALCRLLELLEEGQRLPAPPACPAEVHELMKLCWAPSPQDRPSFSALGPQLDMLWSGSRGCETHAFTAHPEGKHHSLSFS

In the case of O=C(CC1CCN(c2ncccn2)CC1)Nc1ccc2cc1CCc1cncc(c1)Nc1ncc(Cl)c(n1)N2 [Example A172, N-[6-Chloro-2,4,8,18,22-pentaazatetracyclo[14.3.1.1(3,7).1(9,13)]docosa-1(20),3(22),4,6,9(21),10,12,16,18-nonaen-12-yl]-2-(1-pyrimidin-2-ylpiperidin-4-yl)acetamide tris(trifluoroacetate)], the pIC50 [1] was < 6.00, the pIC50 [2] was 6.70 and the “ALK % of inhibition at a concentration of 500 nM or 1 mM” value (from here on “ALK % of inhibition”) [3] was 28%. For the same molecule, the pIC50 (TYK2) was 6.63 and the pIC50 [4] was 7.96.
In the case of Cc1ccc(N2CCC(CC(=O)Nc3ccc4cc3CCc3cncc(c3)Nc3ncc(Cl)c(n3)N4)CC2)nn1 [Example A173, N-[6-Chloro-2,4,8,18,22-pentaazatetracyclo[14.3.1.1(3,7).1(9,13)]docosa-1(20),3(22),4,6,9(21),10,12,16,18-nonaen-12-yl]-2-[1-(6-methylpyridazin-3-yl)piperidin-4-yl]acetamide tris(trifluoroacetate)], the pIC50 [1] was < 6.00, the pIC50 [2] was 7.05 and the “ALK % of inhibition” value [3] was 40%. The pIC50 (TYK2) was 6.98 and the pIC50 [4] was 8.10.
For O=C(CC1CCN(c2nncs2)CC1)Nc1ccc2cc1CCc1cncc(c1)Nc1ncc(Cl)c(n1)N2 [Example A174, tris(trifluoroacetate)], the pIC50 [1] was < 6.00, the pIC50 [2] was 6.91 and the “ALK % of inhibition” value [3] was 33%. The pIC50 (TYK2) was 7.14 and the pIC50 [4] was 8.39.
For Cc1cc(C(=O)N2CCC(CC(=O)Nc3ccc4cc3CCc3cccc(c3)Nc3ncc(Cl)c(n3)N4)CC2)n[nH]1 [Example A175, N-[6-Chloro-2,4,8,22-tetraazatetracyclo[14.3.1.1(3,7).1(9,13)]docosa-1(20),3(22),4,6,9(21),10,12,16,18-nonaen-12-yl]-2-{1-[(5-methyl-1H-pyrazol-3-yl)carbonyl]piperidin-4-yl}acetamide bis(trifluoroacetate)], the pIC50 [1] was < 6.70, the pIC50 [2] was 7.89 and the “ALK % of inhibition” value [3] was 28%. For the same molecule, the pIC50 (TYK2) was 8.74 and the pIC50 [4] was 9.00.
With Cc1ccnc(N2CCC(CC(=O)Nc3ccc4cc3CCc3cncc(c3)Nc3ncc(Cl)c(n3)N4)CC2)c1 [Example A176, N-[6-Chloro-2,4,8,18,22-pentaazatetracyclo[14.3.1.1(3,7).1(9,13)]docosa-1(20),3(22),4,6,9(21),10,12,16,18-nonaen-12-yl]-2-[1-(4-methylpyridin-2-yl)piperidin-4-yl]acetamide tris(trifluoroacetate)] the pIC50 [1] was < 6.70, the pIC50 [2] was < 6.70 and the “ALK % of inhibition” value [3] was 25%. The pIC50 (TYK2) was < 6.70 and the pIC50 [4] was 7.29.
N#Cc1cccnc1N1CCC(CC(=O)Nc2ccc3cc2CCc2cncc(c2)Nc2ncc(Cl)c(n2)N3)CC1 [Example A177, N-[6-Chloro-2,4,8,18,22-pentaazatetracyclo[14.3.1.1(3,7).1(9,13)]docosa-1(20),3(22),4,6,9(21),10,12,16,18-nonaen-12-yl]-2-[1-(3-cyanopyridin-2-yl)piperidin-4-yl]acetamide tris(trifluoroacetate)] was tested, and the pIC50 [1] was < 6.70, the pIC50 [2] was 7.02 and the “ALK % of inhibition” value [3] was 34%. The pIC50 (TYK2) was < 6.70 and the pIC50 [4] was 7.85.
N#Cc1ccnc(N2CCC(CC(=O)Nc3ccc4cc3CCc3cncc(c3)Nc3ncc(Cl)c(n3)N4)CC2)c1 [Example A178, N-[6-Chloro-2,4,8,18,22-pentaazatetracyclo[14.3.1.1(3,7).1(9,13)]docosa-1(20),3(22),4,6,9(21),10,12,16,18-nonaen-12-yl]-2-[1-(4-cyanopyridin-2-yl)piperidin-4-yl]acetamide tris(trifluoroacetate)] was tested, and the pIC50 [1] was < 6.70, the pIC50 [2] was < 6.70 and the “ALK % of inhibition” value [3] was 26%. For the same molecule, the pIC50 (TYK2) was < 6.70 and the pIC50 [4] was 7.17.
In the case of N#Cc1ccc(N2CCC(CC(=O)Nc3ccc4cc3CCc3cncc(c3)Nc3ncc(Cl)c(n3)N4)CC2)nc1 [Example A179, N-[6-Chloro-2,4,8,18,22-pentaazatetracyclo[14.3.1.1(3,7).1(9,13)]docosa-1(20),3(22),4,6,9(21),10,12,16,18-nonaen-12-yl]-2-[1-(5-cyanopyridin-2-yl)piperidin-4-yl]acetamide tris(trifluoroacetate)], the pIC50 [1] was < 6.70, the pIC50 [2] was 7.08 and the “ALK % of inhibition” value [3] was 43%. The pIC50 (TYK2) was < 6.70 and the pIC50 [4] was 7.74.
With O=C(CC1CCN(c2cccc(Cl)n2)CC1)Nc1ccc2cc1CCc1cncc(c1)Nc1ncc(Cl)c(n1)N2 [Example A180, N-[6-Chloro-2,4,8,18,22-pentaazatetracyclo[14.3.1.1(3,7).1(9,13)]docosa-1(20),3(22),4,6,9(21),10,12,16,18-nonaen-12-yl]-2-[1-(6-chloropyridin-2-yl)piperidin-4-yl]acetamide tris(trifluoroacetate)] the pIC50 [1] was < 6.70, the pIC50 [2] was < 6.70 and the “ALK % of inhibition” value [3] was 13%. The pIC50 (TYK2) was < 6.70 and the pIC50 [4] was 7.89.
With O=C(CC1CCN(c2cccc(F)n2)CC1)Nc1ccc2cc1CCc1cncc(c1)Nc1ncc(Cl)c(n1)N2 [Example A181, N-[6-Chloro-2,4,8,18,22-pentaazatetracyclo[14.3.1.1(3,7).1(9,13)]docosa-1(20),3(22),4,6,9(21),10,12,16,18-nonaen-12-yl]-2-[1-(6-fluoropyridin-2-yl)piperidin-4-yl]acetamide tris(trifluoroacetate)] the pIC50 [1] was < 6.70, the pIC50 [2] was 7.09 and the “ALK % of inhibition” value [3] was 42%. It also gave a pIC50 (TYK2) of 7.05 and a pIC50 [4] of 8.20.
For Cc1nccc(N2CCC(CC(=O)Nc3ccc4cc3CCc3cncc(c3)Nc3ncc(Cl)c(n3)N4)CC2)n1 [Example A182, N-[6-Chloro-2,4,8,18,22-pentaazatetracyclo[14.3.1.1(3,7).1(9,13)]docosa-1(20),3(22),4,6,9(21),10,12,16,18-nonaen-12-yl]-2-[1-(2-methylpyrimidin-4-yl)piperidin-4-yl]acetamide tris(trifluoroacetate)], the pIC50 [1] was < 6.70, the pIC50 [2] was < 6.70 and the “ALK % of inhibition” value [3] was 32%. For the same molecule, the pIC50 (TYK2) was < 6.70 and the pIC50 [4] was 7.32.
In the case of O=C(CC1CCN(c2nncs2)CC1)Nc1ccc2cc1CCc1cccc(c1)Nc1ncc(Cl)c(n1)N2 [Example A183, N-[6-Chloro-2,4,8,22-tetraazatetracyclo[14.3.1.1(3,7).1(9,13)]docosa-1(20),3(22),4,6,9(21),10,12,16,18-nonaen-12-yl]-2-[1-(1,3,4-thiadiazol-2-yl)piperidin-4-yl]acetamide bis(trifluoroacetate)], the pIC50 [1] was < 6.70, the pIC50 [2] was 7.66 and the “ALK % of inhibition” value [3] was 40%. For the same molecule, the pIC50 (TYK2) was 7.52 and the pIC50 [4] was 8.44.
O=C(CC1CCN(C(=O)c2cccnc2)CC1)Nc1ccc2cc1CCc1cccc(c1)Nc1ncc(Cl)c(n1)N2 [Example A184, N-[6-Chloro-2,4,8,22-tetraazatetracyclo[14.3.1.1(3,7).1(9,13)]docosa-1(20),3(22),4,6,9(21),10,12,16,18-nonaen-12-yl]-2-[1-(pyridin-3-ylcarbonyl)piperidin-4-yl]acetamide bis(trifluoroacetate)] was tested, and the pIC50 [1] was < 6.70, the pIC50 [2] was 7.10 and the “ALK % of inhibition” value [3] was 29%. The pIC50 (TYK2) was < 6.70 and the pIC50 [4] was 7.37.
